# What was measured:
# HRP [1] = molecular target: T1, HRP (Armoracia rusticana, UniProt P00433); assay: Comparison of signal intensity (Example 9): chemiluminescence on reaction of reagent with HRP; format: biochemical, horseradish; conditions: 5×10^−5 M compound, 0.01 M tris pH 8, 0.5 mM urea peroxide, 0.1 mM p-phenylphenol, 0.025% Tween 20; 3.5×10^−16 moles of HRP
# T1 sequence (P00433 31-338): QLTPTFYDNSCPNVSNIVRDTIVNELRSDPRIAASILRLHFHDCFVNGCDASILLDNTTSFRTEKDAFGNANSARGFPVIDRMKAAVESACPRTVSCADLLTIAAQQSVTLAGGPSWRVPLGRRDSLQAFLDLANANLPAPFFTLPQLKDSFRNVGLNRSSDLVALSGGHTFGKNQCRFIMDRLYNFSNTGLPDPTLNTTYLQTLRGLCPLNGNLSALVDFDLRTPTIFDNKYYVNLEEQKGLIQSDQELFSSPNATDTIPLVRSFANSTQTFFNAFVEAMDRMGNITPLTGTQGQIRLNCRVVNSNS
# Experimental: Reagent compositions comprising 0.01 M tris buffer, pH 8, 0.5 mM urea peroxide, 0.1 mM p-phenylphenol, […], 0.025% Tween 20, and 5×10^−5 M of each compound in the table below except the compound designated Ref. 1 were tested for production of chemiluminescence by reacting a 100 μL aliquot with 3.5×10^−16 moles of HRP. The reagent formulation for Ref. 1 comprised 0.05 M tris buffer, pH 8.6, 0.25 mM urea peroxide, 0.05 mM p-phenylphenol, 0.5 mM EDTA, 0.0125% Tween 20, and 3.3×10^−4 M Ref. 1. For comparison, data are provided for reference compounds 1 and 2.
# HRP [2] = molecular target: T1, HRP; assay: Comparison of signal intensity (Example 10): maximum signal with HRP; format: biochemical, horseradish; conditions: 3×10^−4 M compound, 0.025 M tris pH 8, 2.5 mM urea peroxide, 4 mM p-hydroxycinnamic acid; 3.5×10^−16 moles of HRP
# Experimental: (§1) The maximum signal produced by each of compounds 14, and 27-29 was compared by reacting a 100 μL aliquot of reagent compositions comprising 0.025 M tris buffer, pH 8, 2.5 mM urea peroxide, 4 mM p-hydroxycinnamic acid, 0.5 mM EDTA, 0.1% Tween 20, and 3×10^−4 M of the test compound with 3.5×10^−16 moles of HRP. Each reagent reached maximum light intensity in about 1 minute.
# HRP [3] = molecular target: T1, HRP; assay: Chemiluminescent detection of HRP with compound 14; format: biochemical, horseradish; conditions: 3×10^−4 M compound 14, pH 8.0, p-hydroxycinnamic acid
# Experimental: Reagent compositions comprising 0.025 M tris buffer, pH 8.0, 2.5 mM urea peroxide, 4 mM p-hydroxycinnamic acid, 0.5 mM EDTA, 0.1% Tween 20 and 3×10^−4 M compound 14 were tested for production of chemiluminescence by reacting triplicate 100 μL aliquots with 10 μL of HRP in the range 1.4×10^−16 to 1.4×10^−20 moles. Light production ensued upon mixing and reached maximum intensity in about 1 min. The relation between chemiluminescence intensity and amount of enzyme is depicted in FIG. 1. For comparison, the relationship between S-B and amount of HRP is also shown for reference compound 1 having the formula:
# The results for the reference compound were measured 15 minutes after addition of 10 μL of solutions of HRP containing between 1.4×10^−15 and 1.4×10^−19 moles of enzyme to 100 μL of the reagent comprising 0.055 M tris buffer, pH 8.6, 0.25 mM urea peroxide, 0.05 mM p-phenylphenol, 0.5 mM EDTA, 0.0125% Tween 20 and 3.3×10^−4 M of Ref 1.
# HRP [4] = molecular target: T1, HRP; assay: Chemiluminescent detection of HRP with compound 27; format: biochemical, horseradish; conditions: 3×10^−4 M compound 27, pH 8.0, p-hydroxycinnamic acid
# Experimental: Reagent compositions comprising 0.025 M tris buffer, pH 8.0, 2.5 mM urea peroxide, 4 mM p-hydroxycinnamic acid, 0.5 mM EDTA, 0.1% Tween 20 and 3×10^−4 M compound 27 were tested for production of chemiluminescence by reacting triplicate 100 μL aliquots with 10 μL of HRP in the range 1.4×10^−16 to 1.4×10^−20 moles. Light production ensued upon mixing and reached maximum intensity in about 1 min. The relation between chemiluminescence intensity at 1.5 min and amount of enzyme is depicted in FIG. 2 along with the results for Ref. compound 1 at 15 min as described above.
# HRP [5] = molecular target: T1, HRP; assay: Chemiluminescence time profile (Example 12); format: biochemical, horseradish; conditions: 3×10^−4 M compound 27, 3.5×10^−16 moles of HRP; compared with reagents of Example 11
# Experimental: Reagent compositions comprising 0.025 M tris buffer, pH 8.0, 2.5 mM urea peroxide, 4 mM p-hydroxy-cinnamic acid, 0.5 mM EDTA, 0.1% Tween 20, and 3×10^−4 M compound 27 were tested for production of chemiluminescence by reacting a 100 μL aliquot with 3.5×10^−16 moles of HRP.
# HRP [6] = molecular target: T1, HRP; assay: Comparison of signal intensity (Example 17): maximum signal with HRP; format: biochemical, horseradish; conditions: 1 mM test compound (Formulation 1.0); 3.5×10^−16 moles of HRP
# Experimental: as §1, with “40-51” for “14, and 27-29”, “either 1 mM, 0.3 mM, 0.15 mM or 0.05 mM” for “3×10^−4 M”, “1-3 minutes.” for “about 1 minute.”
# HRP [7] = molecular target: T1, HRP; assay: Stability of working solutions by solution assay; format: physicochemical, horseradish; design: key to Activity / Activity (Control): maximum chemiluminescence intensity (arbitrary light units); conditions: for Activity (Control): fresh reagent from components stored at 4° C.; for Activity: stored working solution
# Experimental: Reagent stability of the working solutions of compound 53 and compound 46 was assessed by preparing the working solution by combining 50 μL aliquots of the two component solutions and storing the mixed solutions at 4° C. or room temperature. The working solution contained 0.025 M tris buffer, pH 8, 2.5 mM urea peroxide, 4 mm p-hydroxycinnamic acid, 0.5 mM EDTA, 0.1% Tween 20, and 0.05 mM of the substrate. Chemiluminescent assays were run with 3.5×10^−16 moles of HRP at 25° C. Maximum intensity results were compared to the values obtained with fresh reagent prepared from the individual components stored at 4° C. […] The composition containing compound 53 was unchanged after four months at 4° C., that containing compound 46 was unchanged after 9 months at 4° C.
# HRP-labeled antibody [8] = molecular target: T2, HRP-labeled antibody (Armoracia rusticana, UniProt P00433); assay: Stability of working solution by western blot assay; format: physicochemical; conditions: stored 1 year at 4° C.
# T2 sequence (P00433 31-338): T1 sequence (P00433 31-338)
# Experimental: (§2) Western blot assays of β-galactosidase were conducted according to Example 13 but using nitrocellulose membrane and a detection reagent comprising 0.025 M tris buffer, pH 8.0, 2.5 mM urea peroxide, 4 mM p-hydroxycinnamic acid, 0.5 mM EDTA, 0.1% Tween 20, and 1 mM compound 46.
# A further measure of the long term stability of a working solution containing compound 46 was provided by serial western blot assays over a 1 year period according to the procedure in example 18. FIG. 9 depicts the performance comparison in the western blot protocol described above using fresh vs. 1 year old working solutions.
# HRP-labeled antibody [9] = molecular target: T2, HRP-labeled antibody; assay: Western blot of β-galactosidase on nitrocellulose membrane with compound 46; format: biochemical; conditions: 1 mM compound 46, nitrocellulose, time points up to 120 min
# Experimental: A western blot assay of β-galactosidase as the test antigen was conducted according to the procedure described in U. K. Laemmli, Nature (London), 227, 680 (1970) using a PVDF membrane. β-Galactosidase standards in the range of 5000-5 pg. The detection reagent containing Compound 1 permitted detection to be performed in under 1 minute.
# as §2
# peroxidase = conditions: reacted with HRP; disclosed in U.S. Pat. No. 5,922,558; cited from earlier work
smiles,measurement,setting,value
CSC(SCCCS(=O)(=O)[O-])=C1c2ccccc2N(c2ccccc2)c2ccccc21.[Na+] [Compound 14],Signal/Background,HRP [1],688
same,Signal/Background,HRP [2],2491
same,time to reach maximum intensity,HRP [3],about 1 min
CSC(SCCCS(=O)(=O)[O-])=C1c2ccccc2N(Cc2ccccc2)c2ccccc21.[Na+] [Compound 27],Signal/Background,HRP [1],533
same,time to reach maximum intensity,HRP [4],about 1 min
same,Signal/Background,HRP [2],6933
same,relative chemiluminescence time profile,HRP [5],rapid generation of chemiluminescence and higher signal level
O=S(=O)([O-])CCCOC1CSC(=C2c3ccccc3N(c3ccccc3)c3ccccc32)SC1.[Na+] (stereo not shown) [Compound 46],Signal/Background,HRP [6],13000
same,% Rel. Activity (Control),HRP [7]; 2 months,101.6%
same,% Rel. Activity (Control),HRP [7]; 3.5 months,100.2%
same,% Rel. Activity (Control),HRP [7]; 4 months,100.0%
same,% Rel. Activity (Control),HRP [7]; 6 months,97.0%
same,% Rel. Activity (Control),HRP [7]; 9 months,99.3%
same,working solution composition after storage,HRP [7]; 9 months at 4° C.,unchanged
same,% Rel. Activity (Control),HRP [7]; 12 months,90.9%
same,Activity (Control),HRP [7]; 2 months,610
same,Activity (Control),HRP [7]; 3.5 months,613
same,Activity (Control),HRP [7]; 4 months,600
same,Activity (Control),HRP [7]; 6 months,660
same,Activity (Control),HRP [7]; 9 months,720
same,Activity (Control),HRP [7]; 12 months,660
same,Activity,HRP [7]; 2 months,620
same,Activity,HRP [7]; 3.5 months,614
same,Activity,HRP [7]; 4 months,600
same,Activity,HRP [7]; 6 months,640
same,Activity,HRP [7]; 9 months,715
same,Activity,HRP [7]; 12 months,600
same,reagent performance on storage of working solution,"HRP [7]; up to three weeks at room temperature, 0.05 mM substrate",no deterioration of reagent performance
same,"western blot performance, fresh vs. 1 year old working solution",HRP-labeled antibody [8],no diminution in blotting assay sensitivity
same,detection of β-gal,HRP-labeled antibody [9],excellent sensitivity
COC(Sc1ccccc1)=C1c2ccccc2N(C)c2ccccc21 [drawing 18],time to reach maximum chemiluminescence intensity,peroxidase,7 min

# From patent publication US8106203B2, “Assay methods using chemiluminescent detection of peroxidase” (Lumigen, Inc., priority 2001, dated 2012)
